Measured values as given in PubChem BioAssay AID316 (DTP/NCI, 2004).
Where “and” joins values, the source holds several entries; their conditions need not be identical. Equal entries are not always repeated. Inconclusive results and toxic doses are left out.

Tested on: P1534 leukemia ip, CD2F1 mice, survival T/C
Experiment: NCI In Vivo Anticancer Drug Screen. Data for tumor model P1534 Leukemia (intraperitoneal) in CD2F1 (CDF1) mice
Conditions: endpoint: mean survival time, higher = longer survival
Procedure: The antitumor activity of compounds was measured in mice bearing transplantable tumors. Survival or tumor size were measured and the results are expressed as the measurement made in the treated group (T) divided by the measurement made in the vehicle treated control group (C). The tumor model used in this assay is P1534 Leukemia (intraperitoneal) in CD2F1 (CDF1) mice

[1] = dose: 2.5 mg/kg/injection, schedule: Q01DX010 (ip), vehicle: saline
[2] = dose: 5.0 mg/kg/injection, schedule: Q01DX010 (ip), vehicle: saline
[3] = dose: 10.0 mg/kg/injection, schedule: Q01DX010 (ip), vehicle: saline
[4] = dose: 20.0 mg/kg/injection, schedule: Q01DX010 (ip), vehicle: saline
[5] = dose: 62.5 mg/kg/injection, schedule: Q01DX010 (ip), vehicle: saline
[6] = dose: 125.0 mg/kg/injection, schedule: Q01DX010 (ip), vehicle: saline
[7] = dose: 200.0 mg/kg/injection, schedule: Q01DX010 (ip), vehicle: water
[8] = dose: 25.0 mg/kg/injection, schedule: Q01DX010 (ip), vehicle: saline
[9] = dose: 50.0 mg/kg/injection, schedule: Q01DX010 (ip), vehicle: saline
[10] = dose: 100.0 mg/kg/injection, schedule: Q01DX010 (ip), vehicle: saline
[11] = dose: 200.0 mg/kg/injection, schedule: Q01DX010 (ip), vehicle: saline
[12] = dose: 400.0 mg/kg/injection, schedule: Q01DX010 (ip), vehicle: saline

## C/C=C1/CN(C)C2Cc3c([nH]c4ccccc34)C(c3cc4[nH]c5c(c4cc3OC)CCN3CC4CC(C(C)O)C3C5(C(=O)OC)C4)CC1C2C(=O)OC (stereo unspecified)
dose: 5.0 mg/kg/injection, schedule: Q01DX010 (ip), vehicle: water
  T/C: 98 % of control
dose: 10.0 mg/kg/injection, schedule: Q01DX010 (ip), vehicle: other
  T/C: 103 % of control
dose: 10.0 mg/kg/injection, schedule: Q01DX010 (ip), vehicle: water
  T/C: 96 % of control
dose: 15.0 mg/kg/injection, schedule: Q01DX010 (ip), vehicle: water
  T/C: 94 % of control
dose: 20.0 mg/kg/injection, schedule: Q01DX010 (ip), vehicle: other
  T/C: 92 % of control
dose: 20.0 mg/kg/injection, schedule: Q01DX010 (ip), vehicle: water
  T/C: 107 % of control
dose: 30.0 mg/kg/injection, schedule: Q01DX010 (ip), vehicle: other
  T/C: 94 % of control
dose: 40.0 mg/kg/injection, schedule: Q01DX010 (ip), vehicle: other
  T/C: 92 % of control

## CCC1=CC2CN3CCc4c([nH]c5ccccc45)C(C(=O)OC)(C2)C13 (stereo unspecified)
[1]
  T/C: 117 % of control
[2]
  T/C: 103 % of control
[3]
  T/C: 100 % of control
[4]
  T/C: 92 % of control

## CC(=O)c1ccc[nH]1
[5]
  T/C: 100 % of control
[6]
  T/C: 96 % of control

## Cc1n[nH]c(C)c1Br
dose: 150.0 mg/kg/injection, schedule: Q01DX010 (ip), vehicle: water
  T/C: 101 % of control
[7]
  T/C: 104 % of control

## CC[C@]12CN3CCc4c([nH]c5ccccc45)[C@@](C(=O)OC)(c4cc5c(cc4OC)N(C)[C@H]4[C@@](O)(C(=O)OC)[C@H](OC(C)=O)[C@]6(CC)C=CCN7CC[C@]54[C@@H]76)CC(C3)[C@H]1O2 (stereo partly specified)
dose: 1.5 mg/kg/injection, schedule: Q01DX010 (ip), vehicle: saline
  T/C: 182 % of control
dose: 3.0 mg/kg/injection, schedule: Q01DX010 (ip), vehicle: saline
  T/C: 260 % of control
dose: 94.0 micrograms/kg/injection, schedule: Q01DX010 (ip), vehicle: saline
  T/C: 96 % of control
dose: 188.0 micrograms/kg/injection, schedule: Q01DX010 (ip), vehicle: saline
  T/C: 103 % of control
dose: 375.0 micrograms/kg/injection, schedule: Q01DX010 (ip), vehicle: saline
  T/C: 123 % of control

## O=C(NCCCCC(NC(=O)c1ccccc1)C(=O)NCCCCCCNCCCCCCNC(=O)C(CCCCNC(=O)c1ccccc1)NC(=O)c1ccccc1)c1ccccc1 (stereo unspecified)
[8]
  T/C: 100 % of control
[9]
  T/C: 110 % of control
[10]
  T/C: 100 % of control
[11]
  T/C: 106 % of control

## NCC(=O)NCCCCCCNCCCCCCNC(=O)CN
[9]
  T/C: 100 % of control
[10]
  T/C: 100 % of control
[11]
  T/C: 100 % of control
[12]
  T/C: 100 % of control

## N#Cc1cn(C2OC(CO)C(O)C2O)c2ncnc(N)c12 (stereo unspecified)
dose: 16.0 micrograms/kg/injection, schedule: Q01DX010 (ip), vehicle: saline
  T/C: 107 % of control
dose: 32.0 micrograms/kg/injection, schedule: Q01DX010 (ip), vehicle: saline
  T/C: 100 % of control
dose: 63.0 micrograms/kg/injection, schedule: Q01DX010 (ip), vehicle: saline
  T/C: 107 % of control

## NC(N)=NCCCC(N)C(=O)NCCCCCCNC(=O)C(N)CCCN=C(N)N (stereo unspecified)
[8]
  T/C: 100 % of control
[9]
  T/C: 96 % of control
[10]
  T/C: 100 % of control
[11]
  T/C: 100 % of control

## COc1ccc(C2NC(C(=O)O)Cc3c2[nH]c2ccccc32)cc1OC (stereo unspecified)
[9]
  T/C: 96 % of control
[10]
  T/C: 100 % of control
[11]
  T/C: 100 % of control
[12]
  T/C: 100 % of control

## CCC(=O)O[C@H]1CC[C@H]2[C@@H]3CCC4=CC(=O)CC[C@]4(C)[C@H]3CC[C@]12C
dose: 62.5 mg/kg/injection, schedule: Q01DX010 (sc), vehicle: steriod suspending solution
  T/C: 96 % of control
dose: 125.0 mg/kg/injection, schedule: Q01DX010 (sc), vehicle: steriod suspending solution
  T/C: 100 % of control
dose: 250.0 mg/kg/injection, schedule: Q01DX010 (sc), vehicle: steriod suspending solution
  T/C: 100 % of control
dose: 500.0 mg/kg/injection, schedule: Q01DX010 (sc), vehicle: steriod suspending solution
  T/C: 100 % of control

## COc1cc(C(=O)CC2CCCCN2)ccc1O (stereo unspecified)
[3]
  T/C: 100 % of control
[4]
  T/C: 96 % of control
dose: 40.0 mg/kg/injection, schedule: Q01DX010 (ip), vehicle: saline
  T/C: 96 % of control
dose: 80.0 mg/kg/injection, schedule: Q01DX010 (ip), vehicle: saline
  T/C: 93 % of control

## CCC12CC(C(=O)OC)=C3Nc4cc(OC)ccc4C34CCN(CC3OC31)C42 (stereo unspecified)
dose: 3.75 mg/kg/injection, schedule: Q01DX010 (ip), vehicle: saline
  T/C: 96 % of control
dose: 7.5 mg/kg/injection, schedule: Q01DX010 (ip), vehicle: saline
  T/C: 100 % of control
dose: 15.0 mg/kg/injection, schedule: Q01DX010 (ip), vehicle: saline
  T/C: 90 % of control
dose: 30.0 mg/kg/injection, schedule: Q01DX010 (ip), vehicle: saline
  T/C: 96 % of control

## O=C(C[C@H]1CCC[C@H](CC(=O)c2ccccc2)N1)c1ccccc1
dose: 12.5 mg/kg/injection, schedule: Q01DX010 (ip), vehicle: saline
  T/C: 92 % of control
[8]
  T/C: 107 % of control
[9]
  T/C: 107 % of control

## CS(=O)(=O)OCCC(=O)N1CCN(C(=O)CCOS(C)(=O)=O)CC1
[8]
  T/C: 160 % of control
[9]
  T/C: 150 % of control
[10]
  T/C: 270 % of control

## COc1ccc2c(c1O)-c1c(OC)c(OC)cc3c1[C@H](C2)[N+](C)(C)CC3
dose: 1.25 mg/kg/injection, schedule: Q01DX010 (ip), vehicle: saline
  T/C: 96 % of control
[1]
  T/C: 103 % of control
[2]
  T/C: 103 % of control
[3]
  T/C: 100 % of control

## O=C(NCCCCCCNC(=O)OCc1ccccc1)OCc1ccccc1
[9]
  T/C: 100 % of control
[10]
  T/C: 96 % of control
[11]
  T/C: 92 % of control
[12]
  T/C: 100 % of control

## Nc1nc(F)nc2c1ncn2C1OC(CO)C(O)C1O (stereo unspecified)
dose: 1.0 mg/kg/injection, schedule: Q01DX010 (ip), vehicle: saline
  T/C: 110 % of control and 100 % of control
dose: 2.0 mg/kg/injection, schedule: Q01DX010 (ip), vehicle: saline
  T/C: 103 % of control
dose: 4.0 mg/kg/injection, schedule: Q01DX010 (ip), vehicle: saline
  T/C: 96 % of control
dose: 8.0 mg/kg/injection, schedule: Q01DX010 (ip), vehicle: saline
  T/C: 92 % of control

## CC(=O)Nc1ccc(/C=N/Nc2ccc([N+](=O)[O-])cn2)cc1
[5]
  T/C: 100 % of control
[6]
  T/C: 100 % of control
dose: 250.0 mg/kg/injection, schedule: Q01DX010 (ip), vehicle: saline
  T/C: 96 % of control

## [N-]=[N+]=CC(=O)NCC(=O)NN
dose: 100.0 mg/kg/injection, schedule: Q01DX010 (ip), vehicle: water
  T/C: 103 % of control
[7]
  T/C: 120 % of control
dose: 300.0 mg/kg/injection, schedule: Q01DX010 (ip), vehicle: water
  T/C: 123 % of control
